Key:
cystinotic fibroblasts [1] = assay: Intracellular NEM-cysteamine, NEM-cysteine, cystamine and mixed disulfide levels in cystinotic fibroblasts; type: cell-based, human; settings: washout period
Experimental: (§1) In vitro experiments with isotopically enriched cystamine in cystinotic fibroblasts. Fibroblasts from a de-identified cystinotic patient were split 3× from 2 plates into 36 plates. Three different drugs were used for the experiments: cystamine (non-labeled), d2-cystamine, and d4-cystamine. There were two time series for each drug. The first was with constant drug incubation and included: 0, 10 min, 30 min, 1 h, 3 h, and 5 h. The other series included a washout after 3 h drug incubation, using fresh media following a PBS wash, and included the timepoints: 0, 30 min, 1 h, 3 h, 5 h, and 17 h. A direct quench and extraction technique were used for harvesting all cells to minimize further oxidation and metabolism. This included 2× washes with PBS that included 5 mM N-ethylmaleimide for trapping free thiol groups, and then scraping the plates with an acidified organic solvent extraction solution containing both d4-cystine and d4-cysteamine (plus d-8 cystamine) as internal standards. All samples were run on an API 4500 triple quadrupole LC-MS/MS, with selective reaction monitoring (SRM/MRM) for the following compounds of interest: cystine, NEM-cysteamine, NEM-cysteine, cystamine, and 2-(methylthio)ethylamine. All data fit well to single exponential curves (either decay or association), except where mentioned.
NEM-cysteamine and NEM-cysteine during constant incubation. Fibroblast cultures were exposed to drug (either cystamine, d2-cystamine, or d4-cystamine) and harvested as described on page 2 for the cystine depletion curve. NEM-cysteamine (or NEM-d1-cysteamine or NEM-d2-cysteamine) was measured for each respective plate and normalized against the signal for d4-cystine.
NEM-cysteamine during washout. Fibroblast cultures were exposed to drug (either cystamine, d2-cystamine, or d4-cystamine) for 3 h were then exposed to media for various timepoints and harvested as previously described.
NEM-cysteine during washout. Fibroblast cultures were exposed to drug (either cystamine, d2-cystamine, or d4-cystamine) for 3 h were then exposed to media for various timepoints and harvested as previously described.
Cystamine during constant drug incubation. Fibroblast cultures were exposed to drug (either cystamine, d2-cystamine, or d4-cystamine) for various timepoints following harvesting as described earlier. Cystamine could be measured in the non-labeled cystamine incubation as well as the d4-cystamine incubation. d2-cystamine could not be accurately measured due to a strong background interference signal corresponding to that mass. No cystamine could be measured in the washout experiments.

[2] = Pharmacokinetics of cystamine and D4-cystamine in rats (monomer measured in plasma); type: in vivo, Sprague Dawley rats
Experimental: Pharmacokinetics of Cystamine in Rats.
In the experimental study 5 Sprague Dawley rats were used: 2 rats were used for control (non-deuterated cystamine) and 3 rats were used for the study compound (D4 cystamine).
Blood was sampled at 0, 20 min, 40 min, 1, 2, 4 and 6 hours (7 total samples per rat). Approximately 160 μl of whole blood was collected into an EDTA retro-orbital blood collection tube and briefly mixed to insure uniform mixing of EDTA. The blood was quickly transferred into a clean ependorf tube containing 40 μl of fresh 150 mM NEM, mixed and incubated at room temperature for 10 minutes. The Eppendorf tube was centrifuged at 3000 rmp for 5 minute sto pellet RBC and collect plasma into a fresh Eppendorf tube. The volume of the plasma was measured by pipette. Formic acid was added to the plasma to a concentration of 1% and mixed.

cystinotic fibroblasts [3] = assay: Cystine depletion during constant drug exposure in cystinotic fibroblasts; type: cell-based, human; settings: 100 uM constant exposure, 0-5 h; vs cystamine
Experimental: as §1
Following incubation, cells were washed 2× in PBS containing N-ethylmaleimide.
Fibroblasts from a de-identified cystinotic patient were split 3× from 2 plates into 18 plates. Two different drugs were used for the experiments: D4n-cystamine, and D8-cystamine. There were two time series for each drug. The first was with constant drug incubation and included: 0, 15 min, 30 min, 1 hr, and 3 hr. The other series included a washout after 3 hours of drug incubation, using fresh media following a PBS wash, and included the time-points: 0, 1 hr, 3 hr, and 16 hr. A direct quench and extraction technique was used for harvesting all cells to minimize further oxidation and metabolism. […] All samples were run on an API 4500 triple quadruple LC-MS/MS, with selective reaction monitoring (SRM/MRM) for the following compounds of interest: cystine, NEM-cysteamine, NEM-cysteine, and cystamine. All data fit well to single exponential curves (either decay or association), except where mentioned.

SMILES: [2H]C([2H])(CN)SSC([2H])([2H])CN [D4-Cystamine, 2,2′-disulfanediylbis(ethan-2,2-d2-1-aminium) chloride]
- NEM-cysteine level after 3 h incubation and washout (cystinotic fibroblasts [1]): rise and increase
- AUC relative to non-deuterated cystamine [2]: at least 1.6 ×
- Cmax relative to non-deuterated cystamine [2]: ~2 ×
- AUC of derived monomer, comparison in words ([2]; vs cystamine derived cysteamine): much higher
- Rate of intracellular cystine depletion, comparison in words (cystinotic fibroblasts [3]): nearly identical
